According to patent US20250144056A1, “ANTIMICROBIAL HOST DEFENSE PEPTIDE-INDUCING COMPOSITIONS AND METHODS OF PRODUCTION AND USE THEREOF” (Board of Regents for the Oklahoma Agricultural and …, priority 2022, published 2025):

Key:
[1] = tested on: AvBD4; test: RT-qPCR of AvBD4 in HTC cells; format: cell-based, chicken; details: 2 mM butyrate and at least one concentration of BIX01294, 24 h (FIG. 5)
Experimental: (§1) Culture and stimulation of macrophages. Two different chicken macrophage cell lines, HTC (24) and HD11 (25), were kindly provided by Dr. Narayan C. Rath and Dr. Hyun Lillehoj of USDA-ARS and maintained in RPMI 1640 containing 10% heat-inactivated FBS, 100 U/ml penicillin, and 100 μg/ml streptomycin and subcultured every 3-4 days. After overnight seeding at 1.5×10^6 cells/well in 6-well cell culture plates, cells were treated with different concentrations of each compound for 24 h or with the indicated concentration of each compound for various lengths of time for dose-response and time-course experiments, respectively. […]
(§2) Total RNA extraction and gene expression analysis. […] Gene expression was performed using reverse transcription-quantitative PCR (RT-qPCR) as previously described (27-29). […] The cDNA was then diluted 10-fold with RNase-free water prior to real-time PCR using QuantiTect SYBR® Green PCR Kit (Qiagen, Valencia, CA) in 10-μl reactions using primers specific for HDP, barrier function, and inflammatory cytokine genes as described (27, 29, 30). […] The fold changes in gene expression in the cells treated with individual compounds or in combinations were calculated relative to the cells treated with an equal volume of RPMI 1640 or DMSO using the ΔΔCt method (31).

[2] = tested on: AvBD10; test: RT-qPCR of AvBD10 in HD11 macrophages; format: cell-based, chicken; details: HD11 cells, 5 μM compound with 2 mM butyrate, 24 h (FIG. 6, Panel D)
Experimental: as §1, §2

[3] = tested on: IL-8; test: RT-qPCR of IL-8 in HTC cells with or without LPS; format: cell-based, chicken
Experimental: (§3) Culture and stimulation of macrophages. Two different chicken macrophage cell lines, HTC (24) and HD11 (25), were kindly provided by Dr. Narayan C. Rath and Dr. Hyun Lillehoj of USDA-ARS and maintained in RPMI 1640 containing 10% heat-inactivated FBS, 100 U/ml penicillin, and 100 μg/ml streptomycin and subcultured every 3-4 days. After overnight seeding at 1.5×10^6 cells/well in 6-well cell culture plates, cells were treated with different concentrations of each compound for 24 h or with the indicated concentration of each compound for various lengths of time for dose-response and time-course experiments, respectively. To study the synergy between HMTi/DNMTi and HDACi, different concentrations of an HMTi or DNMTi were added to the cells in the presence or absence of an HDACi for 24 h, followed by RNA isolation and HDP gene expression analysis as described below. HTC cells were also stimulated with butyrate, BIX01294, or their combination for 24 h, followed by 3-h stimulation with 10 ng/ml LPS and subsequent expression analysis.
(§4) Total RNA extraction and gene expression analysis. Total RNA was extracted using RNAzol (Molecular Biology Research Center, Cincinnati, OH) according to the manufacturer's protocol. Gene expression was performed using reverse transcription-quantitative PCR (RT-qPCR) as previously described (27-29). Reverse transcription was performed with 300 ng of total RNA and Maxima® First Strand cDNA Synthesis Kit (ThermoFisher Scientific, Pittsburgh, PA). The cDNA was then diluted 10-fold with RNase-free water prior to real-time PCR using QuantiTect SYBR® Green PCR Kit (Qiagen, Valencia, CA) in 10-μl reactions using primers specific for HDP, barrier function, and inflammatory cytokine genes as described (27, 29, 30). PCR was run in CFX Connect Real-Time PCR System (Bio-Rad, Hercules, CA) using the following program: 95° C. for 10 min, followed by 40 cycles of 94° C. for 15 sec, 55° C. for 20 sec, and 72° C. for 30 sec. The specificity of PCR reactions was confirmed by the melting curve analysis. The glyceraldehyde-3-phosphate dehydrogenase (GAPDH) gene was used as the reference for data normalization. The fold changes in gene expression in the cells treated with individual compounds or in combinations were calculated relative to the cells treated with an equal volume of RPMI 1640 or DMSO using the ΔΔCt method (31).

[4] = tested on: AvBD9 mRNA expression; test: RT-qPCR of AvBD9 mRNA expression in HTC macrophage cells; format: cell-based, chicken
Experimental: as §3, §4

[5] = tested on: AvBD4; test: RT-qPCR of AvBD4 in HD11 macrophages; format: cell-based, chicken; details: HD11 cells, 5 μM compound with 2 mM butyrate, 24 h (FIG. 6, Panel C)
Experimental: as §1, §2

[6] = tested on: CLDN1; test: RT-qPCR of CLDN1 (claudin 1) in HTC cells; format: cell-based, chicken
Experimental: as §3, §4

[7] = tested on: AvBD8; test: RT-qPCR of AvBD8 in HTC cells; format: cell-based, chicken; details: 2 mM butyrate and at least one concentration of BIX01294, 24 h (FIG. 5)
Experimental: as §1, §2

[8] = tested on: AvBD1; test: RT-qPCR of AvBD1 in HD11 macrophages; format: cell-based, chicken; details: HD11 cells, 5 μM compound with 2 mM butyrate, 24 h (FIG. 6, Panel B)
Experimental: as §1, §2

[9] = tested on: AvBD9; test: RT-qPCR of AvBD9 in peripheral blood mononuclear cells (PBMCs); format: cell-based; details: chicken PBMCs, 24 h (FIG. 6, Panel F)
Experimental: Isolation, culture, and stimulation of chicken peripheral blood mononuclear cells (PBMCs). Chicken PBMCs were isolated from EDTA-anticoagulated venous blood collected from 2- to 4-week-old broiler chickens through gradient centrifugation using Histopaque 1077 (Millipore Sigma) as previously described (22, 26). PBMCs were seeded at 3×10^7 cells/well in 6-well cell culture plates and stimulated with different concentrations of an HMTi or DNMTi with or without 1 mM butyrate for 24 h, followed by RNA isolation and HDP gene expression analysis as described below.
Total RNA extraction and gene expression analysis. Total RNA was extracted using RNAzol (Molecular Biology Research Center, Cincinnati, OH) according to the manufacturer's protocol. Gene expression was performed using reverse transcription-quantitative PCR (RT-qPCR) as previously described (27-29). […] The cDNA was then diluted 10-fold with RNase-free water prior to real-time PCR using QuantiTect SYBR® Green PCR Kit (Qiagen, Valencia, CA) in 10-μl reactions using primers specific for HDP, barrier function, and inflammatory cytokine genes as described (27, 29, 30). […] The fold changes in gene expression in the cells treated with individual compounds or in combinations were calculated relative to the cells treated with an equal volume of RPMI 1640 or DMSO using the ΔΔCt method (31).

[10] = tested on: AvBD9; test: RT-qPCR of AvBD9 in HD11 macrophages; format: cell-based, chicken; details: HD11 cells, 5 μM compound with 2 mM butyrate, 24 h (FIG. 6, Panel A)
Experimental: as §1, §2

[11] = tested on: AvBD9 gene promoter; test: HTC/AvBD9-luc luciferase reporter assay; format: cell-based, chicken
Experimental: Culture and stimulation of a stable HTC/AvBD9-luc luciferase reporter cell line. A stable HTC/AvBD9-luc cell line was generated by cloning a 2.0-Kb AvBD9 gene promoter fragment into a lentiviral luciferase reporter vector, pGreenFire1-mCMV-Puro (System Biosciences, Palo Alto, CA) and then transfected into HTC cells as previously described (22). The stable cell line was maintained in RPMI 1640 containing 10% heat-inactivated FBS, 100 U/ml penicillin, 100 μg/mL streptomycin, and 0.5 μg/mL puromycin and subcultured every 3-4 days. To measure transcriptional activation of the AvBD9 gene promoter in response to different epigenetic compounds, cells were seeded at 4×10^4 cells/well in white 96-well tissue culture plates and stimulated in duplicate with different compounds individually or in combination for 24 h. An equal amount of a solvent was applied as a negative control. Luciferase activity was measured using STEADY-GLO® Luciferase Assay System (Promega, Madison, WI) on an L-Max II luminescence microplate reader (Molecular Devices, Sunnyvale, CA). Cell viabilities were assessed by adding alamarBlue Reagent (ThermoFisher, Waltham, MA) to cell culture 4 h before luciferase assay. Relative luciferase activity was determined for each well after normalization to the cell viability as previously described (22).

activation of the AvBD9 gene promoter (relative luciferase activity) ([11]; compound alone, different concentrations, 24 h (FIG. 2, Panel A)): concentration-dependent activation
Compound: COc1cc2nc(N3CCCN(C)CC3)nc(NC3CCN(Cc4ccccc4)CC3)c2cc1OC [BIX01294]
AvBD4 induction, combination with butyrate [1]: greater than 100 fold | AvBD10 induction, combination with butyrate [2]: synergistically induced, albeit at lower magnitudes | LPS-induced IL-8 expression level, combination with butyrate ([3]; 5 μM BIX01294 + 2 mM butyrate 24 h, then 10 ng/ml LPS 3 h (FIG. 8, Panel E)): remained elevated | IL-8 synthesis, combination with butyrate ([3]; 5 μM BIX01294 + 2 mM butyrate, without LPS (FIG. 8, Panel E)): tended to have a synergistic effect | effect on LPS-induced IL-8 expression ([3]; compound alone 24 h, then 10 ng/ml LPS 3 h (FIG. 8, Panel E)): potentiated | activity in inducing gene expression of IL-8 ([3]; compound alone (2 mM butyrate or 5 μM BIX01294), without LPS (FIG. 8, Panel E)): no or weak activity | impact of LPS on the AvBD9-inducing synergy with butyrate ([4]; 5 μM BIX01294 + 2 mM butyrate 24 h, then 10 ng/ml LPS 3 h (FIG. 8, Panel C)): no impact | additional increase in AvBD9 gene expression over BIX01294 alone, combination with mocetinostat ([4]; 5 μM BIX01294 in combination with 2.5 μM mocetinostat, 24 h (FIG. 7, Panel A)): 23 fold | additional increase in AvBD9 gene expression over BIX01294 alone, combination with butyrate ([4]; 5 μM BIX01294 in combination with 2 mM butyrate, 24 h (FIG. 7, Panel A)): 26 fold | additional increase in AvBD9 gene expression over BIX01294 alone, combination with vorinostat ([4]; 5 μM BIX01294 in combination with vorinostat (SAHA), 24 h (FIG. 7, Panel A)): 69 fold | additional increase in AvBD9 expression of the butyrate combination over compound alone ([4]; 20 μM compound + 2 mM butyrate versus 20 μM compound alone): 54 fold | increase in AvBD9 mRNA expression ([4]; 20 μM compound alone, 24 h (FIG. 2, Panel B), peak): 175 fold | induction of AvBD9 expression ([4]; 20 μM compound alone, 24 h (FIG. 4, Panels A, B)): 207 fold | increase in AvBD9 expression, combination with butyrate ([4]; 20 μM compound in combination with 2 mM butyrate, 24 h (FIG. 4, Panels A, B)): 11,165 fold | synergy with butyrate in AvBD9 mRNA expression ([4]; indicated concentrations in combination with 2 mM butyrate, 24 h (FIG. 4)): concentration-dependent increase | synergy in AvBD9 induction with HDACi ([4]; with any of three HDACi (vorinostat, butyrate, mocetinostat), 24 h (FIG. 7, Panel A)): dramatic synergy | AvBD4 induction, combination with butyrate [5]: synergistically induced, albeit at lower magnitudes | CLDN1 synergy with butyrate after subsequent LPS treatment ([6]; 5 μM BIX01294 + 2 mM butyrate 24 h, then 10 ng/ml LPS 3 h (FIG. 8, Panel A)): further enhanced | synergy in CLDN1 expression with butyrate ([6]; 5 μM BIX01294 + 2 mM butyrate, 24 h (FIG. 8, Panel A)): marked synergy | activity in increasing CLDN1 expression ([6]; 5 μM BIX01294 alone, 24 h (FIG. 8, Panel A)): minimum activity | AvBD8 induction, combination with butyrate [7]: greater than 100 fold | AvBD1 induction, combination with butyrate [8]: synergistically induced, albeit at lower magnitudes | AvBD9 induction ([9]; BIX01294 alone): induced AvBD9 in a dose-dependent manner | synergy in AvBD9 induction with butyrate ([9]; BIX01294 with 1 mM butyrate): obvious synergy | synergy in AvBD9 induction with butyrate [10]: drastic synergy | synergy in luciferase activity with butyrate ([11]; different concentrations in combination with 2 mM butyrate, 24 h (FIG. 3)): marked dose-dependent increase in the synergy
